Reference: paper PMC12340070, “A novel modulator of IL-6R prevents inflammation-induced preterm birth and improves newborn outcome” (EMBO Molecular Medicine, 2025)
Where “and” joins values, the source holds several entries; their conditions need not be identical. Identical values can stand only once. Entries after “also recorded” stand apart in the source; their conditions may differ. One block for each compound: values may come before it. Where a SMILES comes first, the peptide text is derived from it. Where no end group is shown, it is not given here. [ ]: non-standard residue; d: D form.

Assays:
[1] = test system: placenta; test: HSJ633 biodistribution in placenta (fluorescence); type: in vivo, mouse; conditions: 1 mg/kg s.c., LPS 10 μg i.p., GD17, 4 h, pregnant mice; 11–12 samples per group
Experimental: Mice were euthanized after 4 h to analyze tissue distribution of the fluorescent-tagged compounds. Placentas were collected and fixed in 4% paraformaldehyde for 1 day and transferred into 30% sucrose for another day. Placental cryosections were stained with DAPI (0.0002 mg/mL) for nuclei. Images were captured using a ×20 objective with a Zeiss AxioScan.Z1. Fluorescence analysis was performed using ImageJ.

[2] = target: T1, IL-6R (HEK-Blue IL-6 cells) (Homo sapiens, UniProt P08887); test: IL-6-induced IL-1β, TNF-α and IL-6 mRNA in HEK-Blue IL-6 cells, dose-response (RT-qPCR); type: cell-based
T1 construct: host or cells: HEK-Blue IL-6 cells (HEK293-derived, H. sapiens)
Experimental: For in vitro dose–response experiments, HEK-blue IL-6 cells were allowed to acclimate for two passages to complete the stabilization of the receptor before experiments. Prior to experiments, cells at 70% of confluence were added to six-well plates, then starved overnight before media was changed 30 min prior to beginning the stimulation. After the 30 min pre-incubation, the cells were treated with HSJ633 (from 1 × 10^−12 to 1 × 10^−4 M) allowed to sit for 15 min, treated with 3.86 nM of IL-6, and incubated for 6 h. Cell lysis and mRNA extraction were performed by adding RiboZol. Samples were stored at −20 °C until RNA extraction and quantification (see section below).
For RT-qPCR experiments, cells were plated in 6-well plates at 70% of confluence and starved overnight. Cells were treated respectively with HSJ633, HSJ630, HSJ631, HSJ634, HSJ635, HSJ639 (1 × 10^−6 M), or TCZ (3.44 μM, based on validated doses (Sahraoui et al, [2014])) for TNF-α expression. For hIL-1, hIL-6, and hTNF-α expression, cells were treated with HSJ633 using concentrations ranging from 10^−11 to 10^−4 M, allowing for equilibrium over 15 min. Cells were then treated with […] of IL-6 for 6 h for both experiments. Cell lysis was performed by adding RIBOzol. Samples were stored at −20 °C until analysis by quantitative PCR. To determine the degree of phosphorylation of different proteins (STAT3, ERK, AKT, and p38), HEK-Blue IL-6 cells were treated with HSJ633 (10^−6 M), TCZ (3.44 uM) or vehicle for 30 min in DMEM only. Human IL-6 (3.86 nM) was added to the medium for 15 min to stimulate IL-6R pathways leading to STAT3, ERK, and AKT activation. For p38 activation, 25 min of stimulation with IL-6 was required. The wells were charged with radioimmunoprecipitation assay buffer (RIPA) at a concentration of 1×, cOmplete EDTA-free Protease Inhibitor Cocktail final concentration 1×, and phenylmethanesulfonyl fluoride (PMSF) 1 mM. Samples were shaken for 30 min followed by centrifugation at 12,000 RPM at 4 °C for 20 min to harvest the proteins. Proteins were stored at −80 °C until analysis by immunoblotting.
Samples (30 mg) of uterus, placenta, fetal membranes, as well as the fetal lung, brain, and intestine, were thawed and deposited in lysis buffer according to the manufacturer’s protocol (Qiagen RNeasy Plus Mini Kit). Cell lysis and RNA extraction were performed directly into RiboZol. RNA was extracted from tissue fragments and cells according to the manufacturer’s protocol. RNA was quantified with a NanoDrop 1000 spectrophotometer and samples (500 ng) were treated with DNAse I (1U). RNA was used to synthesize cDNA using iScript reverse transcription superMix. Quantitative gene expression analysis was performed on a Light Cycler 96 with iTaq Universal SYBR Green Supermix. […]
Target sequence in this assay (P08887 20-468): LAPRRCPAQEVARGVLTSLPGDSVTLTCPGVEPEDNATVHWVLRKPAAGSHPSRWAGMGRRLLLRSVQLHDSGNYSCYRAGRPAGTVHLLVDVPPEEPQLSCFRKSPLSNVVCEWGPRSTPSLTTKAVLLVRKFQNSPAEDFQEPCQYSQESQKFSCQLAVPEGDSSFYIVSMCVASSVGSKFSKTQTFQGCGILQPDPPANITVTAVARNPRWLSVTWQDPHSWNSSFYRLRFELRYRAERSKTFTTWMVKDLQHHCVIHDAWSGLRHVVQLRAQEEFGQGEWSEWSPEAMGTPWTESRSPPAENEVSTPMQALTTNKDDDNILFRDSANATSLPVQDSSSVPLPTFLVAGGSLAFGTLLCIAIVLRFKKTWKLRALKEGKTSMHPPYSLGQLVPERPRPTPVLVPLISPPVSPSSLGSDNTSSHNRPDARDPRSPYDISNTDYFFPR
Target sequence in this assay (P40189 23-918 partner): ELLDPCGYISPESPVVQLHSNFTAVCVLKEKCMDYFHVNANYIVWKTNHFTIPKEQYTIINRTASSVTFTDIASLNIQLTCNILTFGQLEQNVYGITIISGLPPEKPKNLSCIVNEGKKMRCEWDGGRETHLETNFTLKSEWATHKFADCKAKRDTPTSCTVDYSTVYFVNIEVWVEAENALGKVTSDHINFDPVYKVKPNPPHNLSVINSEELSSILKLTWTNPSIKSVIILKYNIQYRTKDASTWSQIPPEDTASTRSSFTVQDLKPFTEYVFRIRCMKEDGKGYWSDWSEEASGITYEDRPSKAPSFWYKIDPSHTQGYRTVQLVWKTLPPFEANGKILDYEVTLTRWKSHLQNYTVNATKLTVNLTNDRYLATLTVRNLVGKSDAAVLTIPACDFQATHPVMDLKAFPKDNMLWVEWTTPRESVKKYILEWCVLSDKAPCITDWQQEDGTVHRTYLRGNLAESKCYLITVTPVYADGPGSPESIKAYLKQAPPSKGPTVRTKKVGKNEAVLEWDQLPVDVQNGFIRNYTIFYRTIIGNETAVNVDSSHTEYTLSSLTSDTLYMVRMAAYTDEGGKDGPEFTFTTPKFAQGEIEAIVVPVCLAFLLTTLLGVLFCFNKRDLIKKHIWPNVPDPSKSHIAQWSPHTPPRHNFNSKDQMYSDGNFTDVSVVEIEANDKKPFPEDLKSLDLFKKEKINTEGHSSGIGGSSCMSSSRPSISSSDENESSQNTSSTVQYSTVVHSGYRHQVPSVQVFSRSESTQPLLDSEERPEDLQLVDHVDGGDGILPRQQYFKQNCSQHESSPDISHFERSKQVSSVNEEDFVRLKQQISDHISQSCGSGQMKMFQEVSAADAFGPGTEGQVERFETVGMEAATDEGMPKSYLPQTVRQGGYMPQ
Target sequence in this assay (P05231 30-212 partner): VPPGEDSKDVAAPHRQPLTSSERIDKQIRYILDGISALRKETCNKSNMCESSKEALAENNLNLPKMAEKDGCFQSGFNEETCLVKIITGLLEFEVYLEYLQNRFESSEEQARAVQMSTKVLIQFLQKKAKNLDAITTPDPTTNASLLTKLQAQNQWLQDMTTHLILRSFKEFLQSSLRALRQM

[3] = target: T1, IL-6R (HEK-Blue IL-6 cells); test: [125I]-HSJ633 binding and displacement on HEK-Blue IL-6 cells; conditions: 3–4 samples per group
Experimental: (§1) The Bolton–Hunter reaction was utilized to conjugate the N-hydroxysuccinimide ester of 3-(4-hydroxyphenyl) propionic acid, a tyrosine-like residue, to primary amines as per the manufacturer’s instructions. Briefly, the peptide was dissolved in modification buffer (pH 9.0), then 100 μL of Bolton–Hunter Reagent was added and incubated for 3 h with periodic mixing. After incubating, the solution was dialyzed in PBS using a PlusOne Mini Dialysis Kit. Then 25 μL of peptide, 80 μL of PBS, and 25 μL of I^125 were combined in a precoated tube for 15 min. The reaction was stopped, and C-18 spin columns were used to perform washes and collect the iodine-marked peptide. Radioactivity measurements were made for each batch of radioactive peptides using a Gamma counter (Packard Cobra-II Auto Gamma Counter).
(§2) The HEK-blue IL-6 cells were allowed to acclimatize for two passages to complete the stabilization of the receptor. Prior to experiments, media was changed to adjust for a maximum quantity of 500 μL per well. Subsequently, unlabeled HSJ633 (10^−4 M) was added and allowed to reach equilibrium for 15 min. HEK293 and HEK-Blue IL-6 cells were then treated with the labeled HSJ633 in a quantity equating to 50,000 CPM per well. […] All samples were measured using a Gamma counter (Packard Cobra-II Auto Gamma Counter).

[4] = test system: lung parenchyma; conditions: mouse, in vivo
Experimental: To determine the maximal delay of administration of HSJ633, LPS was injected as previously described, and HSJ633 was either administered 2 h or 6 h after the LPS injection at GD16. Dams were consistently observed for delivery until term (G18.5–19.5), and the body weight and survival rate (if 2 or more pups are alive, the litter is considered alive) of the neonates were recorded. The prematurity rate was assessed by determining the number of dams delivering prematurely (gestation length before 18.5 days) out of the total number of dams in the same group. The pups were sacrificed at PT7 for histological analysis.
Histology was performed as described by Habelrih et al (Habelrih et al, [2023]). Images were captured using ×10 objective with a Zeiss AxioScan.Z1.

[5] = test system: LPS-induced preterm birth in CD-1 mice; test: STAT3 inhibitor efficacy in LPS-induced PTB: gestational length and prematurity rate; type: in vivo, mouse; conditions: for prevention of LPS-induced PTB: 5 mg/kg/day s.c., twice a day, GD16; for % PTB: group value; for GD (gestation day): individual dams, one per line
Experimental: Timed pregnant CD-1 mice at days 16 and 17 of gestation were anesthetized with isoflurane and given intraperitoneal (i.p.) injections of LPS (4 μg in 100 μL saline on GD16 and 6 μg in 100 μL saline on GD17, total 10 μg) or vehicle (100 μL). Doses of LPS were selected based on previous reports (Chang et al, [2011]; Elovitz and Mrinalini, [2004]; Fidel et al, [1994]; Sadowsky et al, [2006]; Salminen et al, [2008]; Urakubo et al, [2001]), preliminary dose–response experiments, and knowing that a systemic maternal infection is associated with the onset of labor (Romero et al, [2001]). A total of 100 μL of HSJ633 or HSJ639 (2 mg/kg/day), an anti-IL-6R antibody (800 μg/kg/day) or vehicle was injected subcutaneously (s.c.) 30 min before injections of LPS (to allow distribution of drugs to target tissues) and repeated twice daily until GD18.5.
Thirty minutes before administering LPS, on GD16, NSC74859 (5 mg/kg/day solubilized in 20% DMSO + water, injected twice a day s.c.) or rmgp130/Fc Chimera (10 μg i.p. on GD16 and 10 μg s.c. on GD16.5) were injected into distinct dams. The same LPS-induction PTB model as described above was used for these experiments (4 μg on GD16 + 6 μg on GD17, i.p.). Delivery was assessed until term (GD18.5–19.5).

[6] = target: T1, IL-6R (HEK-Blue IL-6 cells); test: TNF-α expression in HEK-Blue IL-6 cells (RT-qPCR), peptide screening; type: cell-based; conditions: IL-6 3.86 nM 6 h, peptides 1 μM, TCZ 3.44 μM, RT-qPCR normalized to 18S, 2-9 samples per group
Experimental: HEK293 and HEK-blue IL-6 cells were purchased and were used at fewer than 15 passages and tested mycoplasma negative. Cells were cultured in DMEM growth medium supplemented with 10% fetal bovine serum (FBS), 50 U/mL penicillin, and 50 μg/mL streptomycin. HEK-blue IL-6 cell media was also supplemented with HEK-Blue Selection (1:250). Ba/F3-polylinker, Ba/F3-mgp130, and Ba/F3-mgp130-IL-6Rα cells were cultured in RPMI 1640 growth medium supplemented with 10% FBS, 50 U/mL penicillin, and 50 μg/mL streptomycin. These cells were maintained in murine IL-3 at 10 ng/mL and puromycin at 1 μg/mL. Cells were cultured in standard experimental conditions (37 °C, 5% CO2).
For RT-qPCR experiments, cells were plated in 6-well plates at 70% of confluence and starved overnight. […] Samples were stored at −20 °C until analysis by quantitative PCR. […]
Samples (30 mg) of uterus, placenta, fetal membranes, as well as the fetal lung, brain, and intestine, were thawed and deposited in lysis buffer according to the manufacturer’s protocol (Qiagen RNeasy Plus Mini Kit). […] RNA was quantified with a NanoDrop 1000 spectrophotometer and samples (500 ng) were treated with DNAse I (1U). […] Quantitative gene expression analysis was performed on a Light Cycler 96 with iTaq Universal SYBR Green Supermix. […]
Target sequence in this assay (P08887 20-468): as the sequence (P08887 20-468) above
Target sequence in this assay (P40189 23-918 partner): as the sequence (P40189 23-918 partner) above
Target sequence in this assay (P05231 30-212 partner): as the sequence (P05231 30-212 partner) above

[7] = test system: HEK293 cells; test: [125I]-HSJ633 binding on HEK293 cells devoid of IL-6R; parameters: species or system human; conditions: [125I]-HSJ633 10^−8 M, 1.5 h; four samples per group
Experimental: as §1, §2

Compound: O=C1OC2(c3ccc(O)cc3Oc3cc(O)ccc32)c2ccc(N=C=S)cc21 [FITC]
placental fluorescence, LPS-treated [1]: increase in signal intensity in the placenta

IC50 ([2]; HEK-Blue IL-6, HSJ633 10^−11–10^−4 M, IL-6 3.86 nM 6 h, RT-qPCR normalized to 18S, 3–8 samples per group, read-out: IC50 hIL-1β mRNA): 0.8 nM
IC50 ([2]; HEK-Blue IL-6, HSJ633 10^−11–10^−4 M, IL-6 3.86 nM 6 h, RT-qPCR normalized to 18S, 3–8 samples per group, read-out: IC50 hIL-6 mRNA): 2 nM
IC50 ([2]; HEK-Blue IL-6, HSJ633 10^−11–10^−4 M, IL-6 3.86 nM 6 h, RT-qPCR normalized to 18S, 3–8 samples per group, read-out: IC50 hTNF-a mRNA): 0.2 nM
IC50 ([2]; HEK-Blue IL-6, IL-6 3.86 nM, 6 h, RT-qPCR, average over three cytokines, read-out: average IC50, inhibition of IL-6-induced expression of IL-1β, TNF-α, and IL-6 mRNA): ~1 nM
IC50 ([3]; 1.5 h room temperature, gamma counter, read-out: IC50, displacement of bound [125I]-HSJ633 by cold HSJ633 (% of specific binding)): 12 nM
Compound: CC(C)[C@@H](N)C(=O)N[C@H](CCCNC(=N)N)C(=O)N[C@H](CCCCN)C(=O)N[C@H](Cc1ccccc1)C(=O)N[C@H](CCC(N)=O)C(=O)N[C@H](CC(N)=O)C(=O)N[C@H](CO)C(=O)N1CCC[C@@H]1C(=O)N[C@H](C)C(=O)O [HSJ633] (HELM PEPTIDE1{[dV].[dR].[dK].[dF].[dQ].[dN].[dS].[dP].[dA]}$$$$V2.0)
alveolar density in lung, referee's reading of figure [4]: causes loss of alveolar density in the lung

Compound: Cc1ccc(S(=O)(=O)OCC(=O)Nc2ccc(C(=O)O)c(O)c2)cc1 [NSC74859]
prevention of LPS-induced PTB [5]: successfully inhibited preterm birth
prevention of LPS-induced PTB ([5]; listed as NCS74859): effective in preventing LPS-induced PTB
% PTB ([5]; experiment of April 2022, less than 18 days = PTB): 25.00%
GD (gestation day) ([5]; experiment of April 2022, 18.5 days and more = term): 18 and 18.5 and 19
% PTB ([5]; experiment of May 2022): 20.00%
GD (gestation day) ([5]; experiment of May 2022): 19.5 and 18.5 and 17.5
% PTB ([5]; third, undated experiment): 42.86%
GD (gestation day) ([5]; third, undated experiment): 17 and 17.5 and 19 and 19.5

TNF-α expression [6]: induced TNF-α expression
Compound: IL-6: human IL-6, Peprotech 200-06, endogenous IL-6R ligand
displacement of [125I]-HSJ633 by IL-6 ([3]; [125I]-HSJ633 10^−8 M, IL-6 10^−4 M): not by non-radioactive IL-6; also recorded: IL-6 does not displace binding of HSJ633

Compound: [^125I]-HSJ633: HSJ633 iodine-labeled after Bolton–Hunter reaction ([dV][dR][dK][dF][dQ][dN][dS][dP][dA]; also: Bolton–Hunter reagent (3-(4-hydroxyphenyl)propionic acid) conjugated to primary amines, iodinated with 125I)
[125I]-HSJ633 binding on HEK293 cells devoid of IL-6R [7]: No binding
